Literature values, collected in patent US20240237650A1, “AQUEOUS FUNGICIDE MIXTURE FORMULATION” (ADAMA MAKHTESHIM LTD., priority 2021, published 2024).
Where two headings read alike, the source gives them in different places.

Details: 20° C.

CO/C=C(/C(=O)OC)c1ccccc1Oc1cc(Oc2ccccc2C#N)ncn1 [azoxystrobin, methyl (E)-2-{2[6-(2-cyanophenoxy)pyrimidin-4-yloxy]phenyl}-3-methoxyacrylate]
solubility of azoxystrobin in water (pH 5.2 and 7.0): 6.7 µg/mL | solubility of azoxystrobin in water (pH 9.2): 5.9 µg/mL
